Measurements reported in patent US20210309666A1, “SMALL MOLECULE MDM2 PROTEIN DEGRADERS” (THE REGENTS OF THE UNIVERSITY OF MICHIGAN, priority 2018, published 2021).
Where two headings read alike, the source gives them in different places.

Assays:
[1] = system: RS4;11 cells; experiment: Cell growth inhibition, 4-day proliferation assay (WST-8); type: cell-based; conditions: Homo sapiens, 96 h; RS4;11 cells, 4 days, WST-8; read-out: RS4; 11 Cells IC50
Procedure: The effect of representative Compounds of the Disclosure on cell viability was determined in a 4-day proliferation assay. Cells were maintained in the appropriate culture medium with 10% FBS at 37° C. and an atmosphere of 5% CO2. Also, the effect of a MDM2 inhibitor (Cpd. A; see Compound Example No. 22 of U.S. Pat. No. 8,629,141) and a known MDM2 degrader (Cpd. D, see Cpd. No. 175 of WO 2017/0176957) on cell viability in various cell lines is also included in Table 5. Cpd. […] A and D. The structure of Cpd. A is:
Cells were seeded in 96-well flat bottom (Corning COSTAR, Corning, N.Y., cat #3595) at a density of 2,000-3,000 cells/well in 100 μL of culture medium. Compounds were serially diluted in the appropriate medium, and 100 μL of the diluted compounds were added to the appropriate wells of the cell plate. After the addition of compounds, the cells were incubated at 37° C. in an atmosphere of 5% CO2 for 4 days. Cell viability was determined using the WST (2-(2-methoxy-4-nitrophenyl)-3-(4-nitrophenyl)-5-(2,4-disulfophenyl)-2H-tetrazolium, monosodium salt) Cell Counting-8 Kit (Dojindo Molecular Technologies, Inc., Rockville, Md.) according to the manufacturers' instructions.
WST-8 reagent was added to each well at a final concentration of 10% (v/v), and then the plates were incubated at 37° C. for 1-2 hours for color development. The absorbance was measured at 450 nm using a SPECTRAmax PLUS plate reader (Molecular Devices, Sunnyvale, Calif.). The readings were normalized to the DMSO-treated cells and the half maximal inhibitory concentration (IC50) was calculated by nonlinear regression (four parameters sigmoid fitted with variable slope, least squares fit, and no constraint) analysis using the GraphPad Prism 5 software (GraphPad Software, La Jolla, Calif.).

[2] = Separate PK experiment, plasma concentrations after oral dose; type: in vivo; conditions: mouse, 50 mg/kg, mice
Excerpt: In a separate PK experiment, the plasma concentrations of Cpd.

[3] = read-out: Plasma concentration, Average / Mean
[4] = read-out: Plasma concentration, Mouse 1
[5] = read-out: Plasma concentration, Mouse 2

Structure (SMILES)	IC50 [1]	also measured
CCN1[C@@H](C(=O)Nc2ccc(C(=O)N3CCC(C#Cc4cccc5c4CN(C4CCC(=O)NC4=O)C5=O)CC3)cc2)[C@H](c2cccc(Cl)c2F)[C@]2(C(=O)Nc3cc(Cl)ccc32)C12CCCCC2 (stereo partly drawn) [Cpd. No. 24, (3′R,4′S,5′R)-6″-chloro-4′-(3-chloro-2-fluorophenyl)-N-(4-(4-((2-(2,6-dioxopiperidin-3-yl)-1-oxoisoindolin-4-yl)ethynyl)piperidine-1-carbonyl)phenyl)-1′-ethyl-2″-oxodispiro[cyclohexane-1,2′-pyrrolidine-3′,3″-indoline]-5′-carboxamide]	6.6 nM	–
O=C1CCC(N2Cc3c(C#CCCCNC(=O)[C@H]4CC[C@H](NC(=O)[C@@H]5NC6(CCCCC6)[C@@]6(C(=O)Nc7cc(Cl)ccc76)[C@H]5c5ccccc5F)CC4)cccc3C2=O)C(=O)N1 (stereo partly drawn) [Cpd. No. 25, (3′R,4′S,5′R)-6″-chloro-N-(4-((5-(2-(2,6-dioxopiperidin-3-yl)-1-oxoisoindolin-4-yl)pent-4-yn-1-yl)carbamoyl)cyclohexyl)-4′-(2-fluorophenyl)-2″-oxodispiro[cyclohexane-1,2′-pyrrolidine-3′,3″-indoline]-5′-carboxamide]	> 100 nM	–
O=C1CCC(N2Cc3c(C#CCCCNC(=O)[C@H]4CC[C@H](NC(=O)[C@@H]5NC6(CCCCC6)[C@@]6(C(=O)Nc7cc(Cl)ccc76)[C@H]5c5cccc(Cl)c5)CC4)cccc3C2=O)C(=O)N1 (stereo partly drawn) [Cpd. No. 26, (3′R,4′R,5′R)-6″-chloro-4′-(3-chlorophenyl)-N-((1r,4R)-4-((5-(2-(2,6-dioxopiperidin-3-yl)-1-oxoisoindolin-4-yl)pent-4-yn-1-yl)carbamoyl)cyclohexyl)-2″-oxodispiro[cyclohexane-1,2′-pyrrolidine-3′,3″-indoline]-5′-carboxamide]	0.7 nM	–
O=C1CCC(N2Cc3c(C#CCCCNC(=O)[C@H]4CC[C@H](NC(=O)[C@@H]5NC6(CCCCC6)[C@@]6(C(=O)Nc7cc(Cl)ccc76)[C@H]5c5ccccc5)CC4)cccc3C2=O)C(=O)N1 (stereo partly drawn) [Cpd. No. 27, (3′R,4′R,5′R)-6″-chloro-N-((1r,4R)-4-((5-(2-(2,6-dioxopiperidin-3-yl)-1-oxoisoindolin-4-yl)pent-4-yn-1-yl)carbamoyl)cyclohexyl)-2″-oxo-4′-phenyldispiro[cyclohexane-1,2′-pyrrolidine-3′,3″-indoline]-5′-carboxamide]	> 100 nM	–
CC1(C#Cc2cccc3c2CN(C2CCC(=O)NC2=O)C3=O)CCN(C(=O)[C@H]2CC[C@H](NC(=O)[C@@H]3NC4(CCCCC4)[C@@]4(C(=O)Nc5cc(Cl)ccc54)[C@H]3c3cccc(Cl)c3F)CC2)CC1 (stereo partly drawn) [Cpd. No. 30, (3′R,4′S,5′R)-6″-chloro-4′-(3-chloro-2-fluorophenyl)-N-(4-(4-((2-(2,6-dioxopiperidin-3-yl)-1-oxoisoindolin-4-yl)ethynyl)-4-methylpiperidine-1-carbonyl)cyclohexyl)-2″-oxodispiro[cyclohexane-1,2′-pyrrolidine-3′,3″-indoline]-5′-carboxamide]	1.2 nM	–
CC(C)[C@@H](CS(=O)(=O)C(C)C)N1C(=O)[C@@](C)(CC(=O)NCCCC#Cc2cccc3c2CN(C2CCC(=O)NC2=O)C3=O)C[C@H](c2cccc(Cl)c2)[C@H]1c1ccc(Cl)cc1 (stereo partly drawn) [Cpd. No. 37, 2-((3R,5R,6S)-5-(3-chlorophenyl)-6-(4-chlorophenyl)-1-((S)-1-(isopropylsulfonyl)-3-methylbutan-2-yl)-3-methyl-2-oxopiperidin-3-yl)-N-(5-(2-(2,6-dioxopiperidin-3-yl)-1-oxoisoindolin-4-yl)pent-4-yn-1-yl)acetamide]	> 100 nM	–

Now from value to compound, other results behind:

IC50 [1]	Structure (SMILES)	also measured
11 nM	O=C1CCC(N2Cc3c(C#CC4CCN(C(=O)C56CCC(NC(=O)[C@@H]7NC8(CCCCC8)[C@@]8(C(=O)Nc9cc(Cl)ccc98)[C@H]7c7cccc(F)c7F)(CC5)CC6)CC4)cccc3C2=O)C(=O)N1 (stereo partly drawn) [Cpd. No. 14, (3′R,4′S,5′R)-6″-chloro-4′-(2,3-difluorophenyl)-N-(4-(4-((2-(2,6-dioxopiperidin-3-yl)-1-oxoisoindolin-4-yl)ethynyl)piperidine-1-carbonyl)bicyclo[2.2.2]octan-1-yl)-2″-oxodispiro[cyclohexane-1,2′-pyrrolidine-3′,3″-indoline]-5′-carboxamide]	concentration at 1 h [2, 3]: 3300 ng/mL; concentration at 1 h [2, 4]: 4060 ng/mL; concentration at 1 h [2, 5]: 2550 ng/mL; concentration at 3 h [2, 3]: 7460 ng/mL; concentration at 3 h [2, 4]: 6880 ng/mL; concentration at 3 h [2, 5]: 8050 ng/mL; concentration at 6 h [2, 3]: 8240 ng/mL; concentration at 6 h [2, 4]: 7660 ng/mL; concentration at 6 h [2, 5]: 8810 ng/mL
> 100 nM	COc1cc(C(=O)N2CCC(C#Cc3cccc4c3CN(C3CCC(=O)NC3=O)C4=O)CC2)ccc1NC(=O)[C@@H]1NC2(CCCCC2)[C@@]2(C(=O)Nc3cc(Cl)ccc32)[C@H]1c1cccc(Cl)c1F (stereo partly drawn) [Cpd. No. 28, (3′R,4′S,5′R)-6″-chloro-4′-(3-chloro-2-fluorophenyl)-N-(4-(4-((2-(2,6-dioxopiperidin-3-yl)-1-oxoisoindolin-4-yl)ethynyl)piperidine-1-carbonyl)-2-methoxyphenyl)-2″-oxodispiro[cyclohexane-1,2′-pyrrolidine-3′,3″-indoline]-5′-carboxamide]	–
> 100 nM	O=C1CCC(N2Cc3c(C#CC4CCN(C(=O)CC5CCN(C(=O)[C@@H]6NC7(CCCCC7)[C@@]7(C(=O)Nc8cc(Cl)ccc87)[C@H]6c6cccc(Cl)c6F)CC5)CC4)cccc3C2=O)C(=O)N1 (stereo partly drawn) [Cpd. No. 29, 3-(4-((1-(2-(1-((3′R,4′S,5′R)-6″-chloro-4′-(3-chloro-2-fluorophenyl)-2″-oxodispiro[cyclohexane-1,2′-pyrrolidine-3′,3″-indoline]-5′-carbonyl)piperidin-4-yl)acetyl)piperidin-4-yl)ethynyl)-1-oxoisoindolin-2-yl)piperidine-2,6-dione]	–
2.9 nM	CC1(C#Cc2cccc3c2CN(C2CCC(=O)NC2=O)C3=O)CCN(C(=O)C23CCC(NC(=O)[C@@H]4NC5(CCCCC5)[C@@]5(C(=O)Nc6cc(Cl)ccc65)[C@H]4c4cccc(Cl)c4F)(CC2)CC3)CC1 (stereo partly drawn) [Cpd. No. 31, (3′R,4′S,5′R)-6″-chloro-4′-(3-chloro-2-fluorophenyl)-N-(4-(4-((2-(2,6-dioxopiperidin-3-yl)-1-oxoisoindolin-4-yl)ethynyl)-4-methylpiperidine-1-carbonyl)bicyclo[2.2.2]octan-1-yl)-2″-oxodispiro[cyclohexane-1,2′-pyrrolidine-3′,3″-indoline]-5′-carboxamide]	–
1.3 nM	O=C1CCC(N2Cc3c(C#CC4CN(C(=O)[C@H]5CC[C@H](NC(=O)[C@@H]6NC7(CCCCC7)[C@@]7(C(=O)Nc8cc(Cl)ccc87)[C@H]6c6cccc(Cl)c6F)CC5)C4)cccc3C2=O)C(=O)N1 (stereo partly drawn) [Cpd. No. 32, (3′R,4′S,5′R)-6″-chloro-4′-(3-chloro-2-fluorophenyl)-N-(4-(3-((2-(2,6-dioxopiperidin-3-yl)-1-oxoisoindolin-4-yl)ethynyl)azetidine-1-carbonyl)cyclohexyl)-2″-oxodispiro[cyclohexane-1,2′-pyrrolidine-3′,3″-indoline]-5′-carboxamide]	–
1.2 nM	O=C1CCC(N2Cc3c(C#CC4CN(C(=O)C56CCC(NC(=O)[C@@H]7NC8(CCCCC8)[C@@]8(C(=O)Nc9cc(Cl)ccc98)[C@H]7c7cccc(Cl)c7F)(CC5)CC6)C4)cccc3C2=O)C(=O)N1 (stereo partly drawn) [Cpd. No. 33, (3′R,4′S,5′R)-6″-chloro-4′-(3-chloro-2-fluorophenyl)-N-(4-(3-((2-(2,6-dioxopiperidin-3-yl)-1-oxoisoindolin-4-yl)ethynyl)azetidine-1-carbonyl)bicyclo[2.2.2]octan-1-yl)-2″-oxodispiro [cyclohexane-1,2′-pyrrolidine-3′,3″-indoline]-5′-carboxamide]	–
56 nM	CC(C)(C)C[C@@H]1N[C@@H](C(=O)NC23CCC(C(=O)N4CCC(C#Cc5cccc6c5CN(C5CCC(=O)NC5=O)C6=O)CC4)(CC2)CC3)[C@H](c2cccc(Cl)c2F)[C@@]1(C#N)c1ccc(Cl)cc1F (stereo partly shown) [Cpd. No. 38]	–
